Test results from ChEMBL document CHEMBL3525923, “Identification of the metabolites of the antioxidant flavonoid 7-mono-O-(β-hydroxyethyl)-rutoside in mice” (Drug Metab Dispos, 2011).

What was measured:
[1] = Drug level in BALB/c mouse bile assessed as compound formation treated with monoHER at 500 mg/kg, ip measured after 60 mins by LC-DAD-TOF-MS analysis; assay type: ADME, organism-based; design: dose 500 mg/kg, route intraperitoneal; conditions: in vivo, 1 h
[2] = Drug level in BALB/c mouse bile treated with 7-mono-O-(beta-hydroxyethyl)-rutoside assessed as relative metabolite level at 500 mg/kg, ip measured after 60 mins by LC-DAD-TOF-MS analysis; assay type: ADME, organism-based; design: dose 500 mg/kg, route intraperitoneal; conditions: in vivo, 1 h
[3] = Retention time of the compound by LC-DAD-TOF-MS analysis; assay type: physicochemical
[4] = Drug level in BALB/c mouse bile assessed as compound formation treated with monoHER at 500 mg/kg, ip measured after 240 mins by LC-DAD-TOF-MS analysis; assay type: ADME, organism-based; design: dose 500 mg/kg, route intraperitoneal; conditions: in vivo, 4 h
[5] = Half life in mouse heart; assay type: ADME
[6] = Drug metabolism in BALB/c mouse bile assessed as (2S,2'S,3S,3'S,4S,4'S,5R,5'R,6S,6'S)-6,6'-(4-(5-hydroxy-7-(2-hydroxyethoxy)-4-oxo-3-((2S,3R,4S,5S,6R)-3,4,5-trihydroxy-6-(((2R,3R,4R,5R,6S)-3,4,5-trihydroxy-6-methyltetrahydro-2H-pyran-2-yloxy)methyl)tetrahydro-2H-pyran-2-yloxy)-4H-chromen-2-yl)-1,2-phenylene)bis(oxy)bis(3,4,5-trihydroxytetrahydro-2H-pyran-2-carboxylic acid) formation at 500 mg/kg, ip measured after 60 mins by LC-DAD-TOF-MS analysis; assay type: ADME, organism-based; design: dose 500 mg/kg, route intraperitoneal; conditions: in vivo, 1 h
[7] = Drug metabolism in BALB/c mouse bile assessed as (2S,3S,4S,5R,6S)-6-(5-(7-(carboxymethoxy)-5-hydroxy-4-oxo-3-((2S,3R,4S,5S,6R)-3,4,5-trihydroxy-6-(((2R,3R,4R,5R,6S)-3,4,5-trihydroxy-6-methyltetrahydro-2H-pyran-2-yloxy)methyl)tetrahydro-2H-pyran-2-yloxy)-4H-chromen-2-yl)-2-methoxyphenoxy)-3,4,5-trihydroxytetrahydro-2H-pyran-2-carboxylic acid formation at 500 mg/kg, ip measured after 60 mins by LC-DAD-TOF-MS analysis; assay type: ADME, organism-based; design: dose 500 mg/kg, route intraperitoneal; conditions: in vivo, 1 h
[8] = Drug metabolism in BALB/c mouse bile assessed as 2-(5-hydroxy-2-(3-hydroxy-4-methoxyphenyl)-4-oxo-3-((2S,3R,4S,5S,6R)-3,4,5-trihydroxy-6-(((2R,3R,4R,5R,6S)-3,4,5-trihydroxy-6-methyltetrahydro-2H-pyran-2-yloxy)methyl)tetrahydro-2H-pyran-2-yloxy)-4H-chromen-7-yloxy)acetic acid formation at 500 mg/kg, ip measured after 60 mins by LC-DAD-TOF-MS analysis; assay type: ADME, organism-based; design: dose 500 mg/kg, route intraperitoneal; conditions: in vivo, 1 h
[9] = Drug metabolism in BALB/c mouse bile assessed as (2S,3S,4S,5R,6S)-6-(5-(7-(carboxymethoxy)-5-hydroxy-4-oxo-3-((2S,3R,4S,5S,6R)-3,4,5-trihydroxy-6-(((2R,3R,4R,5R,6S)-3,4,5-trihydroxy-6-methyltetrahydro-2H-pyran-2-yloxy)methyl)tetrahydro-2H-pyran-2-yloxy)-4H-chromen-2-yl)-2-hydroxyphenoxy)-3,4,5-trihydroxytetrahydro-2H-pyran-2-carboxylic acid formation at 500 mg/kg, ip measured after 60 mins by LC-DAD-TOF-MS analysis; assay type: ADME, organism-based; design: dose 500 mg/kg, route intraperitoneal; conditions: in vivo, 1 h
[10] = Drug metabolism in BALB/c mouse bile assessed as 5-hydroxy-2-(3-hydroxy-4-methoxyphenyl)-7-(2-hydroxyethoxy)-3-((2S,3R,4S,5S,6R)-3,4,5-trihydroxy-6-(((2R,3R,4R,5R,6S)-3,4,5-trihydroxy-6-methyltetrahydro-2H-pyran-2-yloxy)methyl)tetrahydro-2H-pyran-2-yloxy)-4H-chromen-4-one formation at 500 mg/kg, ip measured after 60 mins by LC-DAD-TOF-MS analysis; assay type: ADME, organism-based; design: dose 500 mg/kg, route intraperitoneal; conditions: in vivo, 1 h
[11] = Drug metabolism in BALB/c mouse bile assessed as (2S,3S,4S,5R,6S)-3,4,5-trihydroxy-6-(5-(5-hydroxy-7-(2-hydroxyethoxy)-4-oxo-3-((2S,3R,4S,5S,6R)-3,4,5-trihydroxy-6-(((2R,3R,4R,5R,6S)-3,4,5-trihydroxy-6-methyltetrahydro-2H-pyran-2-yloxy)methyl)tetrahydro-2H-pyran-2-yloxy)-4H-chromen-2-yl)-2-methoxyphenoxy)tetrahydro-2H-pyran-2-carboxylic acid formation at 500 mg/kg, ip measured after 60 mins by LC-DAD-TOF-MS analysis; assay type: ADME, organism-based; design: dose 500 mg/kg, route intraperitoneal; conditions: in vivo, 1 h
[12] = Drug metabolism in BALB/c mouse bile assessed as 2-(3,4-dimethoxyphenyl)-5-hydroxy-7-(2-hydroxyethoxy)-3-((2S,3R,4S,5S,6R)-3,4,5-trihydroxy-6-(hydroxymethyl)tetrahydro-2H-pyran-2-yloxy)-4H-chromen-4-one formation at 500 mg/kg, ip measured after 240 mins by LC-DAD-TOF-MS analysis; assay type: ADME, organism-based; design: dose 500 mg/kg, route intraperitoneal; conditions: in vivo
[13] = Drug metabolism in BALB/c mouse bile assessed as 5-hydroxy-2-(3-hydroxy-4-methoxyphenyl)-7-(2-hydroxyethoxy)-3-((2S,3R,4S,5S,6R)-3,4,5-trihydroxy-6-(hydroxymethyl)tetrahydro-2H-pyran-2-yloxy)-4H-chromen-4-one formation at 500 mg/kg, ip measured after 240 mins by LC-DAD-TOF-MS analysis; assay type: ADME, organism-based; design: dose 500 mg/kg, route intraperitoneal; conditions: in vivo
[14] = Half life in mouse plasma; assay type: ADME, cell-free
[15] = Drug metabolism in BALB/c mouse bile assessed as 2-(3,4-dimethoxyphenyl)-5-hydroxy-7-(2-hydroxyethoxy)-3-((2S,3R,4S,5S,6R)-3,4,5-trihydroxy-6-(((2R,3R,4R,5R,6S)-3,4,5-trihydroxy-6-methyltetrahydro-2H-pyran-2-yloxy)methyl)tetrahydro-2H-pyran-2-yloxy)-4H-chromen-4-one formation at 500 mg/kg, ip measured after 60 mins by LC-DAD-TOF-MS analysis; assay type: ADME, organism-based; design: dose 500 mg/kg, route intraperitoneal; conditions: in vivo, 1 h
[16] = Drug metabolism in BALB/c mouse bile assessed as 2-(2-(3,4-dihydroxyphenyl)-5-hydroxy-4-oxo-3-((2S,3R,4S,5S,6R)-3,4,5-trihydroxy-6-(((2R,3R,4R,5R,6S)-3,4,5-trihydroxy-6-methyltetrahydro-2H-pyran-2-yloxy)methyl)tetrahydro-2H-pyran-2-yloxy)-4H-chromen-7-yloxy)acetic acid formation at 500 mg/kg, ip measured after 60 mins by LC-DAD-TOF-MS analysis; assay type: ADME, organism-based; design: dose 500 mg/kg, route intraperitoneal; conditions: in vivo, 1 h
[17] = Drug metabolism in BALB/c mouse bile assessed as (S)-4-amino-5-((R)-1-(carboxymethylamino)-3-(2,3-dihydroxy-6-(5-hydroxy-7-(2-hydroxyethoxy)-4-oxo-3-((2S,3R,4S,5S,6R)-3,4,5-trihydroxy-6-(((2R,3R,4R,5R,6S)-3,4,5-trihydroxy-6-methyltetrahydro-2H-pyran-2-yloxy)methyl)tetrahydro-2H-pyran-2-yloxy)-4H-chromen-2-yl)phenylthio)-1-oxopropan-2-ylamino)-5-oxopentanoic acid formation at 500 mg/kg, ip measured after 60 mins by LC-DAD-TOF-MS analysis; assay type: ADME, organism-based; design: dose 500 mg/kg, route intraperitoneal; conditions: in vivo, 1 h

Drug metabolism [1] | Relative metabolite level in bile [2] [%] | Retention_time [3] [min] | SMILES | further results
metabolite_detected | 0.3 | 7.8 | C[C@@H]1O[C@@H](OC[C@H]2O[C@@H](Oc3c(-c4ccc(O)c(O[C@@H]5O[C@H](C(=O)O)[C@@H](O)[C@H](O)[C@H]5O)c4)oc4cc(OCC(=O)O)cc(O)c4c3=O)[C@H](O)[C@@H](O)[C@@H]2O)[C@H](O)[C@H](O)[C@H]1O | 
 | 29 | 8.5 | C[C@@H]1O[C@@H](OC[C@H]2O[C@@H](Oc3c(-c4ccc(O)c(O)c4)oc4cc(OCCO)cc(O)c4c3=O)[C@H](O)[C@@H](O)[C@@H]2O)[C@H](O)[C@H](O)[C@H]1O [MONOXERUTIN] | half-life [5]: 16.2 min; Drug metabolism [6]: metabolite_detected; Drug metabolism [7]: metabolite_detected; Drug metabolism [8]: metabolite_detected; Drug metabolism [9]: metabolite_detected; Drug metabolism [10]: metabolite_detected; Drug metabolism [11]: metabolite_detected; Drug metabolism [12]: metabolite_detected; Drug metabolism [13]: metabolite_detected; half-life [14]: 11.8 min; Drug metabolism [15]: metabolite_detected; Drug metabolism [16]: metabolite_detected; Drug metabolism [17]: metabolite_detected
metabolite_detected | 2 | 9.7 | C[C@@H]1O[C@@H](OC[C@H]2O[C@@H](Oc3c(-c4ccc(O)c(O)c4)oc4cc(OCC(=O)O)cc(O)c4c3=O)[C@H](O)[C@@H](O)[C@@H]2O)[C@H](O)[C@H](O)[C@H]1O | 
metabolite_detected | 0.6 | 3.4 | C[C@@H]1O[C@@H](OC[C@H]2O[C@@H](Oc3c(-c4ccc(O)c(O)c4SC[C@H](NC(=O)CC[C@H](N)C(=O)O)C(=O)NCC(=O)O)oc4cc(OCCO)cc(O)c4c3=O)[C@H](O)[C@@H](O)[C@@H]2O)[C@H](O)[C@H](O)[C@H]1O | 
metabolite_detected | 40 | 11.1 | COc1ccc(-c2oc3cc(OCCO)cc(O)c3c(=O)c2O[C@@H]2O[C@H](CO[C@@H]3O[C@@H](C)[C@H](O)[C@@H](O)[C@H]3O)[C@@H](O)[C@H](O)[C@H]2O)cc1O | 

Further lines, the compound ahead of its results:

SMILES | Drug metabolism [1] | Relative metabolite level in bile [2] [%] | Retention_time [3] [min] | further results
COc1ccc(-c2oc3cc(OCCO)cc(O)c3c(=O)c2O[C@@H]2O[C@H](CO[C@@H]3O[C@@H](C)[C@H](O)[C@@H](O)[C@H]3O)[C@@H](O)[C@H](O)[C@H]2O)cc1OC | metabolite_detected | 0.5 | 14.8 | 
COc1ccc(-c2oc3cc(OCC(=O)O)cc(O)c3c(=O)c2O[C@@H]2O[C@H](CO[C@@H]3O[C@@H](C)[C@H](O)[C@@H](O)[C@H]3O)[C@@H](O)[C@H](O)[C@H]2O)cc1O[C@@H]1O[C@H](C(=O)O)[C@@H](O)[C@H](O)[C@H]1O | metabolite_detected | 0.4 | 8.8 | 
COc1ccc(-c2oc3cc(OCCO)cc(O)c3c(=O)c2O[C@@H]2O[C@H](CO)[C@@H](O)[C@H](O)[C@H]2O)cc1OC |  | 0.6 | 12.5 | Drug metabolism [4]: metabolite_detected
COc1ccc(-c2oc3cc(OCCO)cc(O)c3c(=O)c2O[C@@H]2O[C@H](CO)[C@@H](O)[C@H](O)[C@H]2O)cc1O |  | 0.9 | 7.6 | Drug metabolism [4]: metabolite_detected
COc1ccc(-c2oc3cc(OCCO)cc(O)c3c(=O)c2O[C@@H]2O[C@H](CO[C@@H]3O[C@@H](C)[C@H](O)[C@@H](O)[C@H]3O)[C@@H](O)[C@H](O)[C@H]2O)cc1O[C@@H]1O[C@H](C(=O)O)[C@@H](O)[C@H](O)[C@H]1O | metabolite_detected | 9 | 6.9 | 
COc1cccc2c1C(=O)c1c(O)c3c(c(O)c1C2=O)C[C@@](O)(C(=O)CO)C[C@@H]3O[C@H]1C[C@H](N)[C@H](O)[C@H](C)O1 [DOXORUBICIN] |  |  |  | half-life [5]: 690 min; half-life [14]: 756 min
C[C@@H]1O[C@@H](OC[C@H]2O[C@@H](Oc3c(-c4ccc(O[C@@H]5O[C@H](C(=O)O)[C@@H](O)[C@H](O)[C@H]5O)c(O[C@@H]5O[C@H](C(=O)O)[C@@H](O)[C@H](O)[C@H]5O)c4)oc4cc(OCCO)cc(O)c4c3=O)[C@H](O)[C@@H](O)[C@@H]2O)[C@H](O)[C@H](O)[C@H]1O | metabolite_detected | 0.7 | 7.1 | 
COc1ccc(-c2oc3cc(OCC(=O)O)cc(O)c3c(=O)c2O[C@@H]2O[C@H](CO[C@@H]3O[C@@H](C)[C@H](O)[C@@H](O)[C@H]3O)[C@@H](O)[C@H](O)[C@H]2O)cc1O | metabolite_detected | 5 | 12.3 | 
